Experimental data taken from DBAASP.
In brackets after ≈: the same amount, converted by molar mass. Values belong to the compound of their own block, whether it stands above or below them.

Columns and labels:
Experiment in all cases: ≥ marks a high value that may be exact or a test limit, other limits are often not marked, values filed in µg/mL are converted to µM
[1] = test system: Bacillus megaterium
[2] = test system: Staphylococcus aureus
[3] = test system: Pseudomonas aeruginosa ATCC 27853
[4] = test system: Staphylococcus aureus ATCC 25923
[5] = test system: Staphylococcus aureus ATCC 33591
[6] = test system: Staphylococcus epidermidis ATCC 35984
[7] = test system: Bacillus subtilis ATCC 23857
[8] = test system: Escherichia coli ATCC 25922
[9] = test system: Staphylococcus aureus USA 300
[10] = test system: Acinetobacter sp. DSM 586
[11] = test system: Arthrobacter globiformis VKM Ac-1112
[12] = test system: Bacillus subtilis VKM B-501
[13] = test system: Bacillus subtilis subsp. spizizenii DSM 347
[14] = test system: Escherichia coli DH5alpha
[15] = test system: Escherichia coli DSM 1116
[16] = test system: Escherichia coli K-12
[17] = test system: Escherichia coli MH1
[18] = test system: Pseudomonas aeruginosa PAO1
[19] = test system: Saccharomyces cerevisiae Y190
[20] = test system: Staphylococcus xylosus DSM 20267
[21] = test system: Erwinia amylovora PMV 6076
[22] = test system: Pseudomonas syringae pv. actinidiae Psa3700.1.1
[23] = test system: Pseudomonas syringae pv. syringae EPS 94
[24] = test system: Xanthomonas arboricola pv. pruni CFBP 5563
[25] = test system: Xanthomonas campestris pv. Vesicatoria 2133-2
[26] = test system: Xanthomonas fragariae Xf349-9A

Structure (SMILES): CC[C@H](C)[C@H](NC(=O)[C@H](Cc1cnc[nH]1)NC(=O)[C@@H]1CCCN1C(=O)[C@@H](NC(=O)[C@H](CC(C)C)NC(=O)[C@H](CO)NC(=O)[C@H](CC(C)C)NC(=O)[C@@H](N)Cc1ccccc1)[C@@H](C)CC)C(=O)N[C@H](C(=O)N[C@@H](CO)C(=O)NCC(=O)N[C@H](C(=O)N[C@@H](C)C(=O)N[C@@H](C)C(=O)N[C@@H](CC(C)C)C(=O)N[C@@H](C)C(=O)N[C@@H](CCCCN)C(=O)N[C@@H](Cc1cnc[nH]1)C(=O)N[C@@H](CC(C)C)C(=O)NCC(=O)O)C(C)C)C(C)C [FLSLIPHIVSGVAALAKHLG]
MIC [1]: 3.1 µM (≈ 6.33 µg/mL)
MIC [2]: 12.5 µM (≈ 25.5 µg/mL)

Structure (SMILES): CC[C@H](C)[C@H](NC(=O)[C@H](C)NC(=O)[C@@H](N)CCSC)C(=O)N[C@H](C(=O)NCC(=O)N[C@H](C(=O)N[C@H](C(=O)N[C@H](C(=O)N[C@@H](CCCCN)C(=O)N[C@H](C(=O)N[C@H](C(=O)N[C@@H](CCCCN)C(=O)N[C@@H](C)C(=O)N[C@H](C(=O)N[C@H](C(=O)N[C@@H](CC(=O)O)C(=O)N[C@H](C(=O)N[C@@H](Cc1ccccc1)C(=O)N[C@@H](C)C(=O)N[C@@H](CCCCN)C(=O)O)[C@@H](C)CC)[C@@H](C)CC)[C@@H](C)CC)[C@@H](C)CC)[C@@H](C)CC)[C@@H](C)CC)[C@@H](C)CC)[C@@H](C)O)C(C)C [MAIVGTIIKIIKAIIDIFAK]
MIC [7]: ≥ 128 µM
MIC [8]: > 128 µM
MIC [9]: ≥ 64 µM
MIC [6]: ≥ 64 µM

The remaining lines, values ahead:

MIC [3]: 4.15 µM (≈ 5.65 µg/mL)
MIC [4]: 375 µM (≈ 512 µg/mL)
MIC [5]: ≥ 375 µM
MIC [6]: ≥ 33.2 µM
Structure (SMILES): CC[C@H](C)[C@H](NC(=O)CN)C(=O)NCC(=O)N[C@@H](CCCCN)C(=O)N[C@@H](Cc1ccccc1)C(=O)N[C@@H](CC(C)C)C(=O)N[C@@H](CCCCN)C(=O)N[C@@H](CCCCN)C(=O)N[C@@H](C)C(=O)N[C@@H](CCCCN)C(=O)N[C@@H](CCCCN)C(=O)N[C@@H](Cc1ccccc1)C(N)=O [GIGKFLKKAKKF]

MIC [10]: 3.22 µM (≈ 8 µg/mL)
MIC [11]: 0.3 µM (≈ 0.745 µg/mL)
MIC [12]: 1.2 µM (≈ 2.98 µg/mL)
MIC [13]: 6.44 µM (≈ 16 µg/mL)
MIC [8]: 40.3 µM (≈ 100 µg/mL)
MIC [14]: 2.5 µM (≈ 6.21 µg/mL)
MIC [15]: 3.22 µM (≈ 8 µg/mL)
MIC [16]: ≥ 100 µM
MIC [17]: 6 µM (≈ 14.9 µg/mL)
MIC [18]: > 40 µM
MIC [19]: 20 µM (≈ 49.7 µg/mL)
MIC [4]: 33.8 µM (≈ 84 µg/mL)
MIC [9]: ≥ 100 µM
MIC [20]: 3.22 µM (≈ 8 µg/mL)
Structure (SMILES): CSCC[C@H](NC(=O)[C@H](CO)NC(=O)[C@H](CCCCN)NC(=O)[C@H](Cc1c[nH]c2ccccc12)NC(=O)[C@@H](N)CO)C(=O)N[C@@H](C)C(=O)N[C@@H](CCCCN)C(=O)N[C@@H](CCCCN)C(=O)N[C@@H](CC(C)C)C(=O)N[C@@H](CCCCN)C(=O)N[C@@H](CCC(=O)O)C(=O)N[C@@H](Cc1ccc(O)cc1)C(=O)N[C@@H](CCSC)C(=O)N[C@@H](CCC(=O)O)C(=O)N[C@@H](CCCCN)C(=O)N[C@@H](CC(C)C)C(=O)N[C@@H](CCCCN)C(=O)N[C@@H](CCC(N)=O)C(=O)N[C@@H](CCCNC(=N)N)C(=O)N[C@@H](C)C(=O)O [SWKSMAKKLKEYMEKLKQRA]

MIC [21]: ≥ 50 µM
MIC [22]: ≥ 50 µM
MIC [23]: ≥ 50 µM
MIC [24]: ≥ 50 µM
MIC [25]: ≥ 50 µM
MIC [26]: ≥ 50 µM
Structure (SMILES): CC(C)C[C@H](NC(=O)[C@H](CCCN=C(N)N)NC(=O)[C@H](CC(N)=O)NC(=O)[C@H](CCCCN)NC(=O)[C@H](CCC(=O)O)NC(=O)[C@H](CCC(=O)O)NC(=O)[C@H](CCC(=O)O)NC(=O)[C@@H](NC(=O)[C@H](CC(C)C)NC(=O)[C@H](CCCCN)NC(=O)[C@@H](NC(=O)[C@H](CCCCN)NC(=O)[C@H](CCCCN)NC(=O)[C@@H](N)[C@@H](C)O)[C@@H](C)O)[C@@H](C)O)C(N)=O [TKKTKLTEEEKNRL]
